Legend:
Assay in all cases: MTT cell viability assay
NCI-H460 (EGFR-WT) = type: cell-based, human
Procedure: All of the other chemicals and reagents were from Sigma, or Invitrogen.
Measure the background absorbance of multiwell plates at 690 nm and subtract from the 570 nm measurement. […] Each experiment was carried out in triplicate.

NCI-H226 = type: cell-based; conditions: Homo sapiens, NCI-H226 lung cancer, 48 h, mean ± SD of three experiments, read-out: IC50 (concentration required for 50% inhibition of cell viability)
Procedure: (§1) Cell Line cells were obtained from American Type Culture Collection, cells were cultured using Dulbecco's Modified Eagle's medium (DMEM) (Invitrogen/Life Technologies) supplemented with 10% foetal bovine serum (FBS) (Hyclone), 10 μg/mL of insulin (Sigma), and 1% penicillin-streptomycin. All of the other chemicals and reagents were from Sigma, or Invitrogen. Plate cells (cells density 1.2 – 1.8 × 10,000 cells/well) in a volume of 100 µL complete growth medium and 100 μL of the tested compound per well in a 96-well plate for 24 h before the MTT assay.
Remove culture medium to a centrifuge tube. […] Add 2.0 to 3.0 ml of Trypsin EDTA solution to flask and observe cells under an inverted microscope until cell layer is dispersed. Add 6 to 8 ml of complete growth medium and aspirate cells by gently pipetting. […]
The 3–(4, 5-dimethylthiazol-2-yl)-2,5-diphenyltetrazolium bromide (MTT) method[30] of monitoring in vitro cytotoxicity is well suited for use with multiwell plates. […] The number of living cells in the presence or absence (control) of the various test compounds is directly proportional to the intensity of the blue colour, measured by spectrophotometry using (ROBONIK P2000 Spectrophotometer) at a wavelength of 570 nm. Measure the background absorbance of multiwell plates at 690 nm and subtract from the 570 nm measurement. […]

ACHN = type: cell-based, human
Procedure: as §1
(§2) Remove culture medium to a centrifuge tube. […] Add 2.0 to 3.0 ml of Trypsin EDTA solution to flask and observe cells under an inverted microscope until cell layer is dispersed. Add 6 to 8 ml of complete growth medium and aspirate cells by gently pipetting. Transfer the cell suspension to the centrifuge tube with the medium and centrifuge for 5 to 10 min. Discard the supernatant. Resuspend the cell pellet in fresh growth medium. Add appropriate aliquots of the cell suspension to new culture vessels. Incubate cultures at 37 °C for 24 h. After treatment of cells with the serial concentrations of the compound to be tested incubation is carried out for 48 h at 37 °C, then the plates are to be examined under the inverted microscope and proceed for the MTT assay.
(§3) The 3–(4, 5-dimethylthiazol-2-yl)-2,5-diphenyltetrazolium bromide (MTT) method[30] of monitoring in vitro cytotoxicity is well suited for use with multiwell plates. The assessment of cell population growth is based on the capability of living cells to reduce the yellow product MTT to a blue product, formazan, by a reduction reaction occurring in the mitochondria. The five cell lines were incubated for 24 h in 96-microwell plates. The number of living cells in the presence or absence (control) of the various test compounds is directly proportional to the intensity of the blue colour, measured by spectrophotometry using (ROBONIK P2000 Spectrophotometer) at a wavelength of 570 nm. Measure the background absorbance of multiwell plates at 690 nm and subtract from the 570 nm measurement. Five concentrations ranging from 0.01 μM to 100 μM (with semi-log decrease in concentration) were tested for each of the compounds under study. Each experiment was carried out in triplicate. The IC50 values [the concentration required for 50% inhibition of cell viability] were calculated using sigmoidal dose response curve-fitting models.

NCI-H460 = type: cell-based, human
Procedure: as §1, §2, §3

OVCAR-4 = type: cell-based, human
Procedure: as §1, §2, §3

Cc1nn(-c2ccc(F)cc2)c2ncnc(Nc3ccc(F)c(Cl)c3)c12 [Compound 7d, N-(3-Chloro-4-fluorophenyl)-1–(4-fluorophenyl)-3-methyl-1H-pyrazolo[3,4-d] pyrimidin-4-amine]
IC50 (NCI-H460 (EGFR-WT); Homo sapiens, NCI-H460 (EGFR-WT) lung cancer, MTT, 48 h, mean ± SD of three experiments, read-out: IC50 (concentration required for 50% inhibition of cell viability)): 18.7 ± 0.71 µM
Potency relative to Erlotinib (fold more potent) (NCI-H460 (EGFR-WT); NCI-H460 EGFR-WT, from IC50 values): ~3.5 fold
IC50 (NCI-H226): 17.4 ± 2.13 µM
Potency relative to Erlotinib (fold more potent) (ACHN; ACHN, from IC50 values): 2.2 fold
IC50 (ACHN; Homo sapiens, ACHN renal cancer, MTT, 48 h, mean ± SD of three experiments, read-out: IC50 (concentration required for 50% inhibition of cell viability)): 5.53 ± 0.31 µM
IC50 (NCI-H460; Homo sapiens, NCI-H460 lung cancer, MTT, 48 h, mean ± SD of three experiments, read-out: IC50 (concentration required for 50% inhibition of cell viability)): 4.44 ± 0.26 µM
Potency relative to Erlotinib (fold more potent) (NCI-H460; NCI-H460, from IC50 values): 1.9 fold
IC50 (OVCAR-4; Homo sapiens, OVCAR-4 ovarian cancer, MTT, 48 h, mean ± SD of three experiments, read-out: IC50 (concentration required for 50% inhibition of cell viability)): 1740 ± 60 nM
Potency relative to Erlotinib (fold more potent) (OVCAR-4; OVCAR-4, from IC50 values): 1.6 fold

From publication PMC6352943, “Novel pyrazolo[3,4-d]pyrimidines: design, synthesis, anticancer activity, dual EGFR/ErbB2 receptor tyrosine kinases inhibitory activity, effects on cell cycle profile and caspase-3-mediated apoptosis” (Journal of Enzyme Inhibition and Medicinal Chemistry, 2019)
